Experimental data published in ChEMBL document CHEMBL4325834, “De Novo Molecular Design of a Novel Octapeptide That Inhibits In Vivo Melanogenesis and Has Great Transdermal Ability” (J Med Chem, 2018).
Calls of active or inactive are those of the source. No cut-off for these calls is given here. Where a SMILES comes first, the peptide text is derived from it.

Legend:
[1] = target: T1, Tyrosinase (Mus musculus) (UniProt P11344); assay: Inhibition of TYR activity in mouse B16 cells assessed as reduction in melanin levels at 20 uM after 24 hrs by spectrophotometric analysis relative to control; format: cell-based
T1 sequence (whole entry): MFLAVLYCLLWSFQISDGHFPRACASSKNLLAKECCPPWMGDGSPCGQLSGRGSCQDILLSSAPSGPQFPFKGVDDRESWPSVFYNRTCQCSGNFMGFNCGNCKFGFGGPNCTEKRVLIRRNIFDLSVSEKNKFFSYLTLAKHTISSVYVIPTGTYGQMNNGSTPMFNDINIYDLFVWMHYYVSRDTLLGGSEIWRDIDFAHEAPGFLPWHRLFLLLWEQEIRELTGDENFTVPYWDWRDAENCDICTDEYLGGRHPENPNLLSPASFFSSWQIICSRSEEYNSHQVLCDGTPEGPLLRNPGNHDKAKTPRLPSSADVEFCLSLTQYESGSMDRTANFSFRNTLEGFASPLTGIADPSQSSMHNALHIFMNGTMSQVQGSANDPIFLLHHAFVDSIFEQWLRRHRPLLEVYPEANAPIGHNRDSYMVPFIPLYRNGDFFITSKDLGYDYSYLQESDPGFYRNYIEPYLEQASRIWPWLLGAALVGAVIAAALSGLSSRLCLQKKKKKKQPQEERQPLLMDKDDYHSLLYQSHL

[2] = system: LAD2; assay: (§1) Proinflammatory activity in human LAD2 cells assessed as increase in mast-cell degranulation by measuring beta-hexosaminidase release at 1 mM preincubated for 30 mins followed 4-nitrophenyl-N-acetyl-beta-D-glucosaminide substrate addition and measured after 90 mins by fluorescence-based microplate reader analysis relative to control; format: ADME; conditions: lad2, 1.5 h, 1000 µM
[3] = target: T1, Tyrosinase (Mus musculus); assay: Inhibition of TYR activity in mouse B16 cells assessed as effect on pallet after exfoliation at 20 uM preincubated for 72 hrs followed L-dopa substrate addition and measured after 4 hrs by fluorescence microscopy; format: cell-based
[4] = Drug uptake in skin epidermis of brown guinea pig at 2 mM dosed topically after 30 mins using FITC-labelled compound by H and E staining-based fluorescence microscopy; format: ADME, organism-based, Cavia porcellus; conditions: in vivo, topical_or_ocular, 0.5 h, 2000 µM
[5] = system: B16; assay: Downregulation of TYR protein expression in mouse B16 cells after 72 hrs by Western blot analysis; format: functional, cell-based
[6] = Drug uptake in skin basal layer of brown guinea pig at 2 mM dosed topically after 1 hr using FITC-labelled compound by H and E staining-based fluorescence microscopy; format: ADME, organism-based, Cavia porcellus; conditions: in vivo, topical_or_ocular, 2000 µM
[7] = system: LAD2; assay: as §1, with “0.125” for “1”; format: ADME; conditions: lad2, 1.5 h, 125 µM
[8] = system: Cavia porcellus; assay: (§2) Anti-melanogenic activity in UVB-induced pigmentation Dunkin-Hartley guinea pig model assessed as inhibition of UV-induced melanin production in epidermis basal layer at 1 to 2 mM administered topically using CP hydrogel 6 hrs before UV radiation every day for 2 weeks by Fontana-Masson-staining based assay; format: functional, organism-based
[9] = Toxicity in Dunkin-Hartley guinea pig model of UVB-induced pigmentation assessed as abnormal morphological changes in epidermis at 1 mM to 2 mM administered topically 6 hrs before UV radiation every day for 2 weeks by Fontana-Masson-staining based assay; parameters: species or system Cavia porcellus; conditions: in vivo, topical_or_ocular, 1000 µM
[10] = system: Cavia porcellus; assay: as §2, with “PG solvent” for “CP hydrogel”; format: functional, organism-based
[11] = species on record: Mus musculus; assay: Effect on JNK phosphorylation in mouse B16 cells up to 80 uM after 72 hrs by Western blot analysis; format: cell-based
[12] = Drug uptake in skin basal layer of brown guinea pig at 2 mM dosed topically after 2 to 4 hrs using FITC-labelled compound by H and E staining-based fluorescence microscopy; format: ADME, organism-based, Cavia porcellus; conditions: in vivo, topical_or_ocular, 2000 µM

## CC(C)[C@H](NC(=O)[C@H](CCCNC(=N)N)NC(=O)[C@H](Cc1ccccc1)NC(=O)[C@H](CS)NC(=O)[C@H](CCCNC(=N)N)NC(=O)[C@@H](N)[C@@H](C)O)C(=O)N[C@@H](CS)C(=O)N[C@@H](CO)C(=O)O (H-TRCFRVCS-OH)
[1]
  inhibition: Active
[2]
  Activity: 9.41%
[3]
  Activity: Active
[4]
  Drug uptake: Active
[5]
  inhibition: Active
[6]
  Drug uptake: Active
[7]
  Activity: 3.87%
[8]
  Activity: Active
[9]
  Activity: Non-Toxic
[10]
  Activity: Active
[11]
  Activity: inactive
[12]
  Drug uptake: Not Active
